Entries after “also recorded” stand apart in the source; their conditions may differ. Like-named read-outs stand apart in the source and are kept apart here.
How the values were obtained:
[1] = system: SKBR-3, SKOV-3, PC-3, and U-87 cancer cell lines; assay: MTT cytotoxicity assay, four cancer cell lines taken together; type: cell-based, human; settings: span over the four cancer cell lines
Experimental: (§1) This activity was evaluated in vitro using the standard MTT method (enzymatic reduction of 3-[4,5-dimethylthiazole-2-yl]-2,5-diphenyltetrazolium bromide, MTT, to MTT-formazan) based on a viability assay.
(§2) Cytotoxic activity: Human cancer cells SKBR-3 (human breast cancer cell line) and SKOV-3 (ovarian cancer cell line) were cultured in McCoy’s Modified Medium. Human cancer cells PC-3 (human prostate cancer cell line) were cultured in an F-12K medium. The Human Dermal Fibroblast (HDF) cell line was cultured in Fibroblast Basal Medium. The U-87 cell line was cultured in EMEM medium. Each medium was supplemented with 10% foetal bovine serum, 1% L- glutamine, and 1% penicillin/streptomycin solution. The cell lines were kept in an incubator at 37 °C. All the cell lines and mediums were obtained from the American Type Culture Collection (ATCC) supplied by LGC-Standards (Lomianki, Poland).
(§3) The MTT assay was conducted as described earlier.

[2] = system: U-87 (human glioblastoma); assay: MTT cytotoxicity assay, U-87; type: cell-based; settings: read-out: IC50 (SD), U-87
Experimental: as §1, §2, §3

[3] = system: HDF (regular fibroblast cell line); assay: MTT cytotoxicity assay, normal HDF cells; type: cell-based; settings: Homo sapiens, read-out: IC50 (SD), HDF
Experimental: as §1, §2, §3

[4] = system: SKBR-3 (human breast adenocarcinoma); assay: MTT cytotoxicity assay, SKBR-3; type: cell-based; settings: SK-BR-3, read-out: IC50 (SD), SKBR-3
Experimental: as §1, §2, §3

[5] = system: SKOV-3 (human ovarian cystadenocarcinoma); assay: MTT cytotoxicity assay, SKOV-3; type: cell-based; settings: SK-OV-3, read-out: IC50 (SD), SKOV-3
Experimental: as §1, §2, §3

[6] = DPPH radical-scavenging assay; settings: sample 1.0 mg/mL in DMSO, 30 min, 517 nm; compared with OA (1)
Experimental: The results are presented as % inhibition of the DPPH radical and Trolox equivalent, calculated from the standard curve (Figure 4). Activity assays were performed in eight repetitions.
The 2,2-diphenyl-1-picrylhydrazyl (DPPH) assay was performed according to Garbiec et al. with modifications. Briefly, 25 μL of the sample at a concentration of 1.0 mg/mL dissolved in dimethyl sulfoxide (DMSO) was mixed with 175 μL of DPPH solution (3.9 mg in 50 mL of methanol). The reaction mixture was shaken and incubated in the dark at room temperature for 30 min. The control sample contained 25 μL of DMSO and 175 μL of DPPH solution. Absorbance was measured at 517 nm. The inhibition of the DPPH radical by the sample was calculated according to the following formula: DPPH-scavenging activity (%) = ((AC − AS)/AC) × 100% where AC is the absorbance of the control and AS is the absorbance of the sample.
The results were presented as % inhibition of the DPPH radical and Trolox equivalent, calculated from the standard curve. Activity assays were performed in 8 repetitions.

[7] = system: PC-3 (human prostate carcinoma); assay: MTT cytotoxicity assay, PC-3; type: cell-based; settings: read-out: IC50 (SD), PC-3
Experimental: as §1, §2, §3

Structure (SMILES)	melting point	IC50 ([1]; Homo sapiens)	IC50 [2]	IC50 ([3]; HDF)	IC50 [4]	IC50 [5]	IC50 [3]	DPPH radical inhibition expressed as Trolox equivalent [6]	IC50 [7]	IC50 [1]
CC1(C)CC[C@]2(C(=O)OCOC(=O)[C@]34CCC(C)(C)CC3C3=CCC5[C@@]6(C)CC[C@H](O)C(C)(C)C6CC[C@@]5(C)[C@]3(C)CC4)CC[C@]3(C)C(=CCC4[C@@]5(C)CC[C@H](O)C(C)(C)C5CC[C@]43C)C2C1 (stereo partly shown) (hydrate or solvate) [Compound 2a]	183 to 185 °C									
CC1(C)CC[C@]2(C(=O)O)CC[C@]3(C)C(=CC[C@@H]4[C@@]5(C)CC[C@H](O)C(C)(C)[C@@H]5CC[C@]43C)[C@@H]2C1 [1 (OA), Oleanolic acid, reference compound]		18 to 19 µM	18.2 µM	~25 µM	19.6 µM	18.8 µM				
CC1(C)CC[C@]2(C(=O)OCOC(=O)[C@]34CCC(C)(C)CC3C3=CCC5[C@@]6(C)CC[C@H](O)C(C)(C)C6CC[C@@]5(C)[C@]3(C)CC4)CC[C@]3(C)C(=CCC4[C@@]5(C)CC[C@H](O)C(C)(C)C5CC[C@]43C)C2C1 (stereo partly shown) [Compound 2a]		3.06 to 4.58 µM	3.32 µM		3.96 µM	3.89 µM	6.56 µM	by far the highest activity; also recorded: significantly higher	3.38 µM	
CC1(C)CC[C@]2(C(=O)OCCOC(=O)[C@]34CCC(C)(C)CC3C3=CCC5[C@@]6(C)CC[C@H](O)C(C)(C)C6CC[C@@]5(C)[C@]3(C)CC4)CC[C@]3(C)C(=CCC4[C@@]5(C)CC[C@H](O)C(C)(C)C5CC[C@]43C)C2C1 (stereo partly shown) [Compound 2b]		4.79 to 8.22 µM	6.59 µM		6.67 µM	6.49 µM	11.2 µM	highest level of antioxidant activity; also recorded: significantly higher	6.43 µM	
CC1(C)CC[C@]2(C(=O)OCCCOC(=O)[C@]34CCC(C)(C)CC3C3=CCC5[C@@]6(C)CC[C@H](O)C(C)(C)C6CC[C@@]5(C)[C@]3(C)CC4)CC[C@]3(C)C(=CCC4[C@@]5(C)CC[C@H](O)C(C)(C)C5CC[C@]43C)C2C1 (stereo partly shown) [Compound 2c]		4.79 to 8.22 µM	7.46 µM		7.64 µM	8.22 µM	18.9 µM		7.4 µM	
CC1(C)CC[C@]2(C(=O)OCCCCOC(=O)[C@]34CCC(C)(C)CC3C3=CCC5[C@@]6(C)CC[C@H](O)C(C)(C)C6CC[C@@]5(C)[C@]3(C)CC4)CC[C@]3(C)C(=CCC4[C@@]5(C)CC[C@H](O)C(C)(C)C5CC[C@]43C)C2C1 (stereo partly shown) [Compound 2d]			1.2 µM		1.12 µM	1.56 µM	2.95 µM		1.64 µM	
CC1(C)CC[C@]2(C(=O)OC/C=C\COC(=O)[C@]34CCC(C)(C)CC3C3=CCC5[C@@]6(C)CC[C@H](O)C(C)(C)C6CC[C@@]5(C)[C@]3(C)CC4)CC[C@]3(C)C(=CCC4[C@@]5(C)CC[C@H](O)C(C)(C)C5CC[C@]43C)C2C1 (stereo partly shown) [Compound 2e]			2.74 µM		2.61 µM	2.09 µM	2.68 µM		2.27 µM	
CC1(C)CC[C@]2(C(=O)OC/C=C/COC(=O)[C@]34CCC(C)(C)CC3C3=CCC5[C@@]6(C)CC[C@H](O)C(C)(C)C6CC[C@@]5(C)[C@]3(C)CC4)CC[C@]3(C)C(=CCC4[C@@]5(C)CC[C@H](O)C(C)(C)C5CC[C@]43C)C2C1 (stereo partly shown) [Compound 2f]		4.79 to 8.22 µM	4.91 µM		5.09 µM	4.79 µM	2.78 µM	highest level of antioxidant activity; also recorded: significantly higher	5.11 µM	
CC1(C)CC[C@]2(C(=O)OCCCCCOC(=O)[C@]34CCC(C)(C)CC3C3=CCC5[C@@]6(C)CC[C@H](O)C(C)(C)C6CC[C@@]5(C)[C@]3(C)CC4)CC[C@]3(C)C(=CCC4[C@@]5(C)CC[C@H](O)C(C)(C)C5CC[C@]43C)C2C1 (stereo partly shown) [Compound 2g]		4.79 to 8.22 µM	5.32 µM		5.21 µM	5.16 µM	3.37 µM		5.8 µM	
CC1(C)CC[C@]2(C(=O)OCCCCCCOC(=O)[C@]34CCC(C)(C)CC3C3=CCC5[C@@]6(C)CC[C@H](O)C(C)(C)C6CC[C@@]5(C)[C@]3(C)CC4)CC[C@]3(C)C(=CCC4[C@@]5(C)CC[C@H](O)C(C)(C)C5CC[C@]43C)C2C1 (stereo partly shown) [Compound 2h]			5.87 µM		6.02 µM	5.39 µM	17.3 µM		5.34 µM	
CC1(C)CC[C@]2(C(=O)OCCCCCCCOC(=O)[C@]34CCC(C)(C)CC3C3=CCC5[C@@]6(C)CC[C@H](O)C(C)(C)C6CC[C@@]5(C)[C@]3(C)CC4)CC[C@]3(C)C(=CCC4[C@@]5(C)CC[C@H](O)C(C)(C)C5CC[C@]43C)C2C1 (stereo partly shown) [Compound 2i]		3.06 to 4.58 µM	3.06 µM		3.46 µM	3.68 µM	5.39 µM		3.16 µM	
CC1(C)CC[C@]2(C(=O)OCCCCCCCCOC(=O)[C@]34CCC(C)(C)CC3C3=CCC5[C@@]6(C)CC[C@H](O)C(C)(C)C6CC[C@@]5(C)[C@]3(C)CC4)CC[C@]3(C)C(=CCC4[C@@]5(C)CC[C@H](O)C(C)(C)C5CC[C@]43C)C2C1 (stereo partly shown) [Compound 2j]		9.81 to 10.7 µM	10.7 µM		9.99 µM	10.3 µM	16 µM		9.81 µM	
CC1(C)CC[C@]2(C(=O)OCCCCCCCCCOC(=O)[C@]34CCC(C)(C)CC3C3=CCC5[C@@]6(C)CC[C@H](O)C(C)(C)C6CC[C@@]5(C)[C@]3(C)CC4)CC[C@]3(C)C(=CCC4[C@@]5(C)CC[C@H](O)C(C)(C)C5CC[C@]43C)C2C1 (stereo partly shown) [Compound 2k]		4.79 to 8.22 µM	7.34 µM		6.93 µM	6.89 µM	16.8 µM		6.93 µM	
CC1(C)CC[C@]2(C(=O)OCCCCCCCCCCOC(=O)[C@]34CCC(C)(C)CC3C3=CCC5[C@@]6(C)CC[C@H](O)C(C)(C)C6CC[C@@]5(C)[C@]3(C)CC4)CC[C@]3(C)C(=CCC4[C@@]5(C)CC[C@H](O)C(C)(C)C5CC[C@]43C)C2C1 (stereo partly shown) [Compound 2l]		18.4 µM	18.7 µM		18.7 µM	18.4 µM	36.3 µM		18.4 µM	18.7 µM
CC1(C)CC[C@]2(C(=O)OCCCCCCCCCCCOC(=O)[C@]34CCC(C)(C)CC3C3=CCC5[C@@]6(C)CC[C@H](O)C(C)(C)C6CC[C@@]5(C)[C@]3(C)CC4)CC[C@]3(C)C(=CCC4[C@@]5(C)CC[C@H](O)C(C)(C)C5CC[C@]43C)C2C1 (stereo partly shown) [Compound 2m]		3.06 to 4.58 µM	4.25 µM		3.93 µM	4.58 µM	7.43 µM		3.91 µM	
CC1(C)CC[C@]2(C(=O)OCCCCCCCCCCCCOC(=O)[C@]34CCC(C)(C)CC3C3=CCC5[C@@]6(C)CC[C@H](O)C(C)(C)C6CC[C@@]5(C)[C@]3(C)CC4)CC[C@]3(C)C(=CCC4[C@@]5(C)CC[C@H](O)C(C)(C)C5CC[C@]43C)C2C1 (stereo partly shown) [Compound 2n]		4.79 to 8.22 µM	6.51 µM		6.79 µM	7.41 µM	7.3 µM		6.96 µM	
